Reference: ChEMBL document CHEMBL5465560, “Selectivity Literature for EUbOPEN Chemogenomic Library” (2024)
Each block holds one compound with its values, some of them ahead of it.

Key:
[1] = target: Serine/threonine-protein kinase B-raf (Homo sapiens, UniProt P15056, V600E); experiment: Selectivity interaction (Radiometric kinase assay (using 10 uM ATP)) EUB0000601a BRAF
[2] = target: Platelet-derived growth factor receptor beta (Homo sapiens, UniProt P09619); experiment: Selectivity interaction (KinomeScan (DiscoverX)) EUB0000699a PDGFRB; conditions: at 10 µM
[3] = target: Delta-type opioid receptor (Homo sapiens, UniProt P41143); experiment: Selectivity interaction (GPCR panel (PDSP screen)) EUB0001079a OPRD1; conditions: at 10 µM
[4] = target: T1, NUAK family SNF1-like kinase 2 (Homo sapiens) (UniProt Q9H093); experiment: Selectivity interaction (KinomeScan (DiscoverX)) EUB0000607a NUAK2; conditions: at 10 µM
T1 sequence (whole entry): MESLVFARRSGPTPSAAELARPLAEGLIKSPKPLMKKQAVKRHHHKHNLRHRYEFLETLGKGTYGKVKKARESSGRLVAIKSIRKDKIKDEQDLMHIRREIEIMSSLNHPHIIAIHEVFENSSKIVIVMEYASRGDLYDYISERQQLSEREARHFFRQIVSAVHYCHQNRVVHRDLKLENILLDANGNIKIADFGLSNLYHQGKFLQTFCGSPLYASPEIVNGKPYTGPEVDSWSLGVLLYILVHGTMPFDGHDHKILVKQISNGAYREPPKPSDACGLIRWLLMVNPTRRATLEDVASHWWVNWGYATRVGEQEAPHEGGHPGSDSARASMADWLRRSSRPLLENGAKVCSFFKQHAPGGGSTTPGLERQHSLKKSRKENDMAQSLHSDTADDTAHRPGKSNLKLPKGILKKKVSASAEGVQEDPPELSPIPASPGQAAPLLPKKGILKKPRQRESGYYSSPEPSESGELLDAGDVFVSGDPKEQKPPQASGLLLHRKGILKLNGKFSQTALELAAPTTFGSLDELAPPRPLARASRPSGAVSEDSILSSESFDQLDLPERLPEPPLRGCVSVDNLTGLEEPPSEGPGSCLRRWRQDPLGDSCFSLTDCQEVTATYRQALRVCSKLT

[5] = target: Serine/threonine-protein kinase PAK 4 (Homo sapiens, UniProt O96013); experiment: Selectivity interaction (KinomeScan (DiscoverX)) EUB0000607a PAK4; conditions: at 10 µM
[6] = target: Citron Rho-interacting kinase (Homo sapiens) (UniProt O14578); experiment: Selectivity interaction (KinomeScan (DiscoverX)) EUB0000045b CIT
[7] = target: T2, Serine/threonine-protein kinase BRSK1 (Homo sapiens) (UniProt Q8TDC3); conditions: at 10 µM
T2 sequence (whole entry): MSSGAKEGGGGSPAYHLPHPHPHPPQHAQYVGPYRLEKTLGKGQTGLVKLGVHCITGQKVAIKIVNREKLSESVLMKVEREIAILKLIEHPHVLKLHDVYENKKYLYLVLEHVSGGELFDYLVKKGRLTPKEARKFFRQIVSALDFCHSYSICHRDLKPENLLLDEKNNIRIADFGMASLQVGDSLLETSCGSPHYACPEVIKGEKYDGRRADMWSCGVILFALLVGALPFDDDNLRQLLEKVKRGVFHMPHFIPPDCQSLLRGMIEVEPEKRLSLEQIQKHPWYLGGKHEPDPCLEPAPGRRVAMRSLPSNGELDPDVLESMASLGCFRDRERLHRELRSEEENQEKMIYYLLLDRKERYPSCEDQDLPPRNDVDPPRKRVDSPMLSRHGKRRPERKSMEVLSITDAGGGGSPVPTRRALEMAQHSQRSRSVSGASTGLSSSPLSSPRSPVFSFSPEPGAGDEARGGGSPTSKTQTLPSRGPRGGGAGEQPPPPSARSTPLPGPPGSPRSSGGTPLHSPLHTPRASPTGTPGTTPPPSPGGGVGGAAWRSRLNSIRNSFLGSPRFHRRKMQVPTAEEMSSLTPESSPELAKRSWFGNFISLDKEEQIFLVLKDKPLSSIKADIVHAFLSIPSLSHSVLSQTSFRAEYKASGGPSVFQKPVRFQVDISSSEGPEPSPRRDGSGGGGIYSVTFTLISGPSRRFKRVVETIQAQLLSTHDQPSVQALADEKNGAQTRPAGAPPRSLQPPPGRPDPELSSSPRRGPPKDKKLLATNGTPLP

[8] = target: Tyrosine-protein kinase ABL2 (Homo sapiens, UniProt P42684); experiment: Selectivity interaction (ActivX KiNativ screen (kinase selectivity in THP-1 cell lysates)) EUB0000639a ABL2; type: subcellular; conditions: lysate, at 0.2 µM
[9] = target: T3, Inhibitor of nuclear factor kappa-B kinase subunit alpha (Homo sapiens) (UniProt O15111); experiment: Selectivity interaction (ActivX KiNativ screen (kinase selectivity in THP-1 cell lysates)) EUB0000639a CHUK; type: subcellular; conditions: lysate
T3 sequence (whole entry): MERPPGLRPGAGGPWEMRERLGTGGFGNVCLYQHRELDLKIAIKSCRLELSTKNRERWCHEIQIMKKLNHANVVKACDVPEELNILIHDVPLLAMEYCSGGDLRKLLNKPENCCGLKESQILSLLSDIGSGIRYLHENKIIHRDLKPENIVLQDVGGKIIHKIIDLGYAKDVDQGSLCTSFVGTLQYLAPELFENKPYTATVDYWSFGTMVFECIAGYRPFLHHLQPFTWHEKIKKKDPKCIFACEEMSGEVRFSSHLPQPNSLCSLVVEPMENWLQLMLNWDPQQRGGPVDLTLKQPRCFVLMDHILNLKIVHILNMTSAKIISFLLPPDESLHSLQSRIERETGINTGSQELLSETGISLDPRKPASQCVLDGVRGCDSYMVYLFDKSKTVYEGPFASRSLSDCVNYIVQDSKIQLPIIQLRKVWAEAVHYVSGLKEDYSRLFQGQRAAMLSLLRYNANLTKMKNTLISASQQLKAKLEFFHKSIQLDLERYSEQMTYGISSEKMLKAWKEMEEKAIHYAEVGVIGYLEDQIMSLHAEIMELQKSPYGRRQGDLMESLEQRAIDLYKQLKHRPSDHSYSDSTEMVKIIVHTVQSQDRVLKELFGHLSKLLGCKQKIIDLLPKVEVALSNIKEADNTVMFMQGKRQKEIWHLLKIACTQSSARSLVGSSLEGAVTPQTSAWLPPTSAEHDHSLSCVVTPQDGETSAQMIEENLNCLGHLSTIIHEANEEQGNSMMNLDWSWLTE

[10] = target: Maternal embryonic leucine zipper kinase (Homo sapiens) (UniProt Q14680); experiment: Selectivity interaction (KinomeScan (DiscoverX)) EUB0001049a MELK; conditions: at 1 µM
Chain of Maternal embryonic leucine zipper kinase (Homo sapiens) (Q14680 whole entry, looked up): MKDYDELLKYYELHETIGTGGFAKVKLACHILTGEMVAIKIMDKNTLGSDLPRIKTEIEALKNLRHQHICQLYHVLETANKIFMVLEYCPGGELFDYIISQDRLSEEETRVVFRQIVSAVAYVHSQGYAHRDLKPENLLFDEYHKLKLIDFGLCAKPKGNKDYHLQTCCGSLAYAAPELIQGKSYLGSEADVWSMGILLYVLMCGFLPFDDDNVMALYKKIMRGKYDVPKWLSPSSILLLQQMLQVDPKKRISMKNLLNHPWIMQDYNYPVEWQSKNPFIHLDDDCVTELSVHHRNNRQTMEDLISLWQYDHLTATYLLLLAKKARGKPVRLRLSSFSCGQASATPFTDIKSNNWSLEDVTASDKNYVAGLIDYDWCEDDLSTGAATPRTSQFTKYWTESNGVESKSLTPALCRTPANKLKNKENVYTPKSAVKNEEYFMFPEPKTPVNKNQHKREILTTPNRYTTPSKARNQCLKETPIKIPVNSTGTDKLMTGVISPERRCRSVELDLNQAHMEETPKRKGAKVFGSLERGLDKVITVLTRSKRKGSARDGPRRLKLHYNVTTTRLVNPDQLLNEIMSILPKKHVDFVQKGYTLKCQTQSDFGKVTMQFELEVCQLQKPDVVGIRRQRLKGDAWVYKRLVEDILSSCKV

Chain of Citron Rho-interacting kinase (Homo sapiens) (O14578 whole entry): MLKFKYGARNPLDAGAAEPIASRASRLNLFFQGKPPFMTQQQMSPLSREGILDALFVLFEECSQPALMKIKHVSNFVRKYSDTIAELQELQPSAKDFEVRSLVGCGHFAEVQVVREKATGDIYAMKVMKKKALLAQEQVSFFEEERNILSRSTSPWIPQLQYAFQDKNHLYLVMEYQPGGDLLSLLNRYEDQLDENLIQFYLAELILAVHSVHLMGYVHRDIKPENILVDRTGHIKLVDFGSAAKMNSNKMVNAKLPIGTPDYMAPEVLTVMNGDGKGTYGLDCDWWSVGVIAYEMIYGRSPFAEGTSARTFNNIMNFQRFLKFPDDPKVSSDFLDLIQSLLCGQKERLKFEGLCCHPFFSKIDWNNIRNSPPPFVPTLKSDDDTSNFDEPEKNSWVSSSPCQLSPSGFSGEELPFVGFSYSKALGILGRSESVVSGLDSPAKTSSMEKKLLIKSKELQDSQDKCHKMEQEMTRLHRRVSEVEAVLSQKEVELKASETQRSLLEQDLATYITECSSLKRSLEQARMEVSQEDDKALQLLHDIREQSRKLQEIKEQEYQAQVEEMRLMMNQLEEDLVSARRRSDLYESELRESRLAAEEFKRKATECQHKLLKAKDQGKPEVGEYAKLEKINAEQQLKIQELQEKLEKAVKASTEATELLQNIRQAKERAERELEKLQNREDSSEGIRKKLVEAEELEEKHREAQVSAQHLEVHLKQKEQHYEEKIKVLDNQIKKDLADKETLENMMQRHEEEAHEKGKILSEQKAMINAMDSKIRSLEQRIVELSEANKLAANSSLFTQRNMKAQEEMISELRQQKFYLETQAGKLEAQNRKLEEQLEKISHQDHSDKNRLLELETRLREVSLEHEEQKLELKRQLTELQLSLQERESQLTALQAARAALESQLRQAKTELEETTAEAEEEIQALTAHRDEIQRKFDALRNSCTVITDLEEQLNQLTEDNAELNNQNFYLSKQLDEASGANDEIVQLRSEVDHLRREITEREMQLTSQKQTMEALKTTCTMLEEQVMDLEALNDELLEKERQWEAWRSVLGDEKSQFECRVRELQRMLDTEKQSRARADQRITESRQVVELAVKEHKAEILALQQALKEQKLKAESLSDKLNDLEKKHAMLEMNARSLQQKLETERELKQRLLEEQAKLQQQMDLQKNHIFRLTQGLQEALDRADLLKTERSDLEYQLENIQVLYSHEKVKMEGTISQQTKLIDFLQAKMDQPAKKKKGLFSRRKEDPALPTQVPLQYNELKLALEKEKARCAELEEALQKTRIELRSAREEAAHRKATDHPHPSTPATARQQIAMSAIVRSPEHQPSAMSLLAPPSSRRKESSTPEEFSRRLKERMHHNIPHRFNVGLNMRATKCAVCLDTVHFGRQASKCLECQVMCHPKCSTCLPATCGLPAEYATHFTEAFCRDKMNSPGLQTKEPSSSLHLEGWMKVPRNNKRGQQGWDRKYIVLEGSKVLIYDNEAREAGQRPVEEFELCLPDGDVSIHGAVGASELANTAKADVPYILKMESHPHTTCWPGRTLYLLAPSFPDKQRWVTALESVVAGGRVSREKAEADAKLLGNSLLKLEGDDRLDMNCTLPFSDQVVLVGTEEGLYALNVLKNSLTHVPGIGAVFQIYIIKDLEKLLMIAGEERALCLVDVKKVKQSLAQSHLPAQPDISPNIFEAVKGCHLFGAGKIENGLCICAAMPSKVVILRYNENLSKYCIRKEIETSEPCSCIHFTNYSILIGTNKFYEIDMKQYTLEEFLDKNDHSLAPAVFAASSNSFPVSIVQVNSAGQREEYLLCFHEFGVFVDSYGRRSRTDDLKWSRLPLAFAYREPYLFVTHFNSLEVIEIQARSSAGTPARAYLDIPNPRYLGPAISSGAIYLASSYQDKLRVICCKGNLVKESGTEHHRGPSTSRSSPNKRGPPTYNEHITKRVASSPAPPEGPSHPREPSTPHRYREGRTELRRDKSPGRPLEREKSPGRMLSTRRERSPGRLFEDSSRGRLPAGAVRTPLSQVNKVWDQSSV
Chain of Delta-type opioid receptor (P41143 whole entry): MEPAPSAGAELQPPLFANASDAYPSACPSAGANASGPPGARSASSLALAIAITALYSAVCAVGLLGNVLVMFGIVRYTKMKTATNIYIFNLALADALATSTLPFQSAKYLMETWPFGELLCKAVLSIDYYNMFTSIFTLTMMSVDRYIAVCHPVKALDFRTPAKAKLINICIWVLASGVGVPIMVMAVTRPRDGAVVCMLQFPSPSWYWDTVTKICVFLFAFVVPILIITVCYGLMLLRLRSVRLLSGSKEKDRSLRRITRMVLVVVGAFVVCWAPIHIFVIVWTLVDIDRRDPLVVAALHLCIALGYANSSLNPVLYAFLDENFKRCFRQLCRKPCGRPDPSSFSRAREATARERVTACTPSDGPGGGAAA
Chain of Serine/threonine-protein kinase B-raf (P15056 2-766 V600E limits assumed): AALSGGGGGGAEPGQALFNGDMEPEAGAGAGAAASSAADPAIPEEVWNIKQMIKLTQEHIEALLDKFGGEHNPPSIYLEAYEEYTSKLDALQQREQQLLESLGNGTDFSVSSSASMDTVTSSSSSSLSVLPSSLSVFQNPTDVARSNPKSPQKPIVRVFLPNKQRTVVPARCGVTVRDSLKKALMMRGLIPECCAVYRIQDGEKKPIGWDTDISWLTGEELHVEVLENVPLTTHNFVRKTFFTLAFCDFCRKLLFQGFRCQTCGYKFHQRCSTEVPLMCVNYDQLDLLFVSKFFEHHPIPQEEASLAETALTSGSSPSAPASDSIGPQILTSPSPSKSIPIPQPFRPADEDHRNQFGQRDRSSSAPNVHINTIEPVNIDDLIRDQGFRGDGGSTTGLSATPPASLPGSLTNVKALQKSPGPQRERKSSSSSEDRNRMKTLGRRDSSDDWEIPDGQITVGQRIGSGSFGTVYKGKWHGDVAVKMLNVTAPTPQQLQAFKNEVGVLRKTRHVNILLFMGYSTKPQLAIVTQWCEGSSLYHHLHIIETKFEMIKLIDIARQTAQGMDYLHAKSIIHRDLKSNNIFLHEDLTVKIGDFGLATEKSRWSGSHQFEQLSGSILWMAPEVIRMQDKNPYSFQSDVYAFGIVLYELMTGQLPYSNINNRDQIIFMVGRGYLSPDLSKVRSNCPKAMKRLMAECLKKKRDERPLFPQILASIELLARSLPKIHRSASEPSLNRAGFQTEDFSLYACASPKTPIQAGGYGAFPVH
Chain of Tyrosine-protein kinase ABL2 (P42684 whole entry): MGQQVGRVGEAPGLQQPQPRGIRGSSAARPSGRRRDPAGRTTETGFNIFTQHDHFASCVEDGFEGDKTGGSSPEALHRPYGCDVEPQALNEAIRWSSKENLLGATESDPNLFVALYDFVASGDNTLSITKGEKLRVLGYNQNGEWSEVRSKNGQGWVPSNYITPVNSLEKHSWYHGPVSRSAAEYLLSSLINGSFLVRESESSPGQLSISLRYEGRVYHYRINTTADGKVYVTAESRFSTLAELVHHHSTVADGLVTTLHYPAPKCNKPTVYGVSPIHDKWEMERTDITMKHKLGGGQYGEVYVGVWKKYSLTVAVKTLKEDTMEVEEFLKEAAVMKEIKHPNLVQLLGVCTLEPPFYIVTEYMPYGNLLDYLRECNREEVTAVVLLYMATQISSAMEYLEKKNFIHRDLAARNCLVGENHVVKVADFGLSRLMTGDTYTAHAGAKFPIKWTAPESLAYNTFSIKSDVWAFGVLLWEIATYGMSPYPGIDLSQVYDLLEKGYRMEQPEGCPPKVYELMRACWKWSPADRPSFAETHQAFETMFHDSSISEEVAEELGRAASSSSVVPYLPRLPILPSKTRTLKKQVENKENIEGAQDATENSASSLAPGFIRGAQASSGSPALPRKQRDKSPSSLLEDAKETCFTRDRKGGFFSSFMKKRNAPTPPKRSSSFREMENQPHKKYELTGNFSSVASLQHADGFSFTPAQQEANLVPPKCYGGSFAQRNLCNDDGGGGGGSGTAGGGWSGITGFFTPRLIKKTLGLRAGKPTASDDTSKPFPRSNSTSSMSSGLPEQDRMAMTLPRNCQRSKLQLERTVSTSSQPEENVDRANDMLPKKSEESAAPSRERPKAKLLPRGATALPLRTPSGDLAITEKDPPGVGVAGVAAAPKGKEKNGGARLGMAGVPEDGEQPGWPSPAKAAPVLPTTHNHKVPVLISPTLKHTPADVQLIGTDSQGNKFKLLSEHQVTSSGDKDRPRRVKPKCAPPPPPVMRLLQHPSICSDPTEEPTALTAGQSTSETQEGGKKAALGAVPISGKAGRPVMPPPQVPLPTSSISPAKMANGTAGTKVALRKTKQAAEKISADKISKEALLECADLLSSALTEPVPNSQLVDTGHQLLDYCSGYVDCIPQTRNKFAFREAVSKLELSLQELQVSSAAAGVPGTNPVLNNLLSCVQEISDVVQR

- IC50 [1]: > 2000 nM
Compound: CCc1cc(Nc2nccc(-c3c(-c4ccc(OC)c(C(=O)Nc5c(F)cccc5F)c4)nc4ccccn34)n2)c(OC)cc1N1CCC(N2CCN(S(C)(=O)=O)CC2)CC1

- % of control [2]: 38%
Compound: CCN(CC)CCCCNc1ncc2cc(-c3cc(OC)cc(OC)c3)c(NC(=O)NC(C)(C)C)nc2n1

Compound: Nc1cnc(N2CCc3cc(S(=O)(=O)Nc4c(F)cc(Cl)cc4F)cc(N4CCCC4=O)c32)nc1 [TP-020n]
- % of inhibition [3]: -1.24%

Compound: CNC(=O)Nc1ccc(-c2nc(N3CC4CCC(C3)O4)c3cnn(C4CCC5(CC4)OCCO5)c3n2)cc1
- % of control [4]: 100%
- % of control [5]: 100%

Compound: C=CC(=O)Nc1cc(-n2c(=O)ccc3cnc4ccc(-c5ccc(NS(C)(=O)=O)cc5)cc4c32)ccc1C
- % of control ([6]; at 1 µM): 83%
- % of control ([6]; at 10 µM): 53%

Compound: COCC(=O)NC/C=C/c1ccc2ncnc(Nc3ccc(Oc4ccc(C)nc4)c(C)c3)c2c1 [CP-724714]
- % of control [7]: 100%

- % of inhibition [8]: -42.6%
- % of inhibition ([9]; at 0.01 µM): 1.5%
- % of inhibition ([9]; at 0.04 µM): -2.5%
- % of inhibition ([9]; at 0.2 µM): 7.8%
- % of inhibition ([9]; at 1 µM): 6.7%
- % of inhibition ([9]; at 5 µM): -16.4%
Compound: CC[C@@H]1[C@H](F)C(=O)N[C@@H]1COc1nccc2cc(C(N)=O)c(OC)cc12 [ZIMLOVISERTIB]

Compound: COc1cc(Nc2nc(C)cc(-c3cnn4nc(OC)ccc34)n2)cc(C(F)(F)F)c1
- % of control [10]: 97%
